“And” between values parts separate entries of the source, which are not always exact repeats. Equal values may be shown once.
Assays:
Assay in all cases: DUB selectivity profiling (DUBprofiler, ubiquitin–rhodamine(110)–glycine)
Type in all cases: biochemical
[1] = target: T1, panel of 48 purified DUBs (Homo sapiens, UniProt Q9Y5K5); conditions: DUB UCHL5; screening concentration 5 μM; 5 µM
T1 construct: purchased Ubiquigent (DUBprofiler service)
Procedure: (§1) Biochemical selectivity profiling (DUBprofiler) was performed by Ubiquigent with a panel of 48 purified DUBs and ubiquitin–rhodamine(110)–glycine as a fluorescent substrate.

[2] = system: panel of 48 purified DUBs; conditions: single dose 5 μM, including AMSH-LP
Procedure: as §1

[3] = target: T2, panel of 48 purified DUBs (Homo sapiens, UniProt Q96FJ0); conditions: screening concentration 5 μM, 5 µM
T2 construct: purchased Ubiquigent (DUBprofiler service)
T2 sequence (Q96FJ0 whole entry): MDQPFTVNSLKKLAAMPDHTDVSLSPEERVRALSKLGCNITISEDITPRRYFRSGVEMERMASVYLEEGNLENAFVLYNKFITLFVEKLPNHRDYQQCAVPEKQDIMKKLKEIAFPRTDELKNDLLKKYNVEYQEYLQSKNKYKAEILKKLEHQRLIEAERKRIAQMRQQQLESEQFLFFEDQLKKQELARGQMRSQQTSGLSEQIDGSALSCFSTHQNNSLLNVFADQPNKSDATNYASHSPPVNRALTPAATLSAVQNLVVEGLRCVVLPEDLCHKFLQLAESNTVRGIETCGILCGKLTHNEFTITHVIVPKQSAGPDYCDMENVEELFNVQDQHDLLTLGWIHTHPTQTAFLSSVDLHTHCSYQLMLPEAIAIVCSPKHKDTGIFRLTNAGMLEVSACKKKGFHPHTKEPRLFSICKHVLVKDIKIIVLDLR
Procedure: as §1

[4] = target: T3, panel of 48 purified DUBs (Homo sapiens, UniProt Q8TAC2); conditions: DUB JOSD2; screening concentration 5 μM; 5 µM
T3 construct: purchased Ubiquigent (DUBprofiler service)
T3 sequence (Q8TAC2 whole entry): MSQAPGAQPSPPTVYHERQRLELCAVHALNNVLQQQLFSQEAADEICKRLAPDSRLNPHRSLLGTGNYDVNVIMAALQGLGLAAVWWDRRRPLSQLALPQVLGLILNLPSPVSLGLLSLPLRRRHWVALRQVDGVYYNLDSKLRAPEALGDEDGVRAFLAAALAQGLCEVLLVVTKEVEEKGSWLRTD
Procedure: as §1

[5] = target: T4, panel of 48 purified DUBs (Homo sapiens, UniProt Q9UK80); conditions: DUB USP21; screening concentration 5 μM
T4 construct: purchased Ubiquigent (DUBprofiler service)
Procedure: as §1

[6] = target: T5, panel of 48 purified DUBs (Homo sapiens, UniProt P15374); conditions: DUB UCHL3; screening concentration 5 μM; 5 µM
T5 construct: purchased Ubiquigent (DUBprofiler service)
T5 sequence (P15374 whole entry): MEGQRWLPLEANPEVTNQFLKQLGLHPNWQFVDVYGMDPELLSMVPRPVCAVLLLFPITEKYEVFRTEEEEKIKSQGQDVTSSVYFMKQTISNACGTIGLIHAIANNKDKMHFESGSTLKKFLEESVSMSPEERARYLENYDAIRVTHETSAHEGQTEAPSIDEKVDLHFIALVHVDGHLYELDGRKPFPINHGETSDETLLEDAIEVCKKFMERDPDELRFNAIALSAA
Procedure: as §1

[7] = target: T6, panel of 48 purified DUBs (Homo sapiens, UniProt Q96G74); conditions: DUB OTUD5(p177S); screening concentration 5 μM; 5 µM
T6 construct: purchased Ubiquigent (DUBprofiler service)
Procedure: as §1

[8] = target: T7, panel of 48 purified DUBs (Homo sapiens, UniProt P35125); conditions: DUB USP6; screening concentration 5 μM; 5 µM
T7 construct: purchased Ubiquigent (DUBprofiler service)
T7 sequence (P35125 whole entry): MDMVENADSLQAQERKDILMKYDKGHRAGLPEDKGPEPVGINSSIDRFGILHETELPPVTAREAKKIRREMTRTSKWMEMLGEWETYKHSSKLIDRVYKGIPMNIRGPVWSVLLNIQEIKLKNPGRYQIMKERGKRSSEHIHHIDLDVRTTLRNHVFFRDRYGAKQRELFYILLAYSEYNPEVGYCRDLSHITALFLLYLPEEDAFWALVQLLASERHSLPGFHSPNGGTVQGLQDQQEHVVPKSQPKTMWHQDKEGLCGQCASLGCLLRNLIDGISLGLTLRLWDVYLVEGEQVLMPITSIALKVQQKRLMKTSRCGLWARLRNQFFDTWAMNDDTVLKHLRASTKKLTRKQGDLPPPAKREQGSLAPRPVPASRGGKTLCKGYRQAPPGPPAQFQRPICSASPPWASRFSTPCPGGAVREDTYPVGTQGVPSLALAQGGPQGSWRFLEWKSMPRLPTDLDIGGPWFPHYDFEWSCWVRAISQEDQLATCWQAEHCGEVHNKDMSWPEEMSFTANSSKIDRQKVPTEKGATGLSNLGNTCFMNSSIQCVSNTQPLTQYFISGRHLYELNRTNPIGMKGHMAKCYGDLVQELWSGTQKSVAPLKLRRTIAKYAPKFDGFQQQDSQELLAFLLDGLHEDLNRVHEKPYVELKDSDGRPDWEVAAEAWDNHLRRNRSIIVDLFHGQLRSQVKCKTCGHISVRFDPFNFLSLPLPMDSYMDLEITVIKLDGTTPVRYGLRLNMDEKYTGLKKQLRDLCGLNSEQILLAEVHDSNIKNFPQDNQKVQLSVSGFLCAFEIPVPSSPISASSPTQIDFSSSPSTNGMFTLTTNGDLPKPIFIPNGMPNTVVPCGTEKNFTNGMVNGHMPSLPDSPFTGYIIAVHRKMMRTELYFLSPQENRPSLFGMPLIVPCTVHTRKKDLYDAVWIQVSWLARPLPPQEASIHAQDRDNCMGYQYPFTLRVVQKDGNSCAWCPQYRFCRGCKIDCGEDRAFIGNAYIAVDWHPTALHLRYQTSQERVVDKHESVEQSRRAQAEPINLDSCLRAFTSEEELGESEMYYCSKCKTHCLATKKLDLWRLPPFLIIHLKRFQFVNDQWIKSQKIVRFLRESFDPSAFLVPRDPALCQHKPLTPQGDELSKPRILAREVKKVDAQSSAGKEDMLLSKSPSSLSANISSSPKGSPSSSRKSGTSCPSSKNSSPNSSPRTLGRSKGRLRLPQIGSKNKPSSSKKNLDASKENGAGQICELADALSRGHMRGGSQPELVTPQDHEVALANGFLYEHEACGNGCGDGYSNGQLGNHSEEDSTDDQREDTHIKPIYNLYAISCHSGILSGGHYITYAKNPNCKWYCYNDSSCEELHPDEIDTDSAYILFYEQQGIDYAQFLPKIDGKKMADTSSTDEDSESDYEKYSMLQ
Procedure: as §1

[9] = target: T8, panel of 48 purified DUBs (Homo sapiens, UniProt O94966); conditions: DUB USP19; screening concentration 5 μM; 5 µM
T8 construct: purchased Ubiquigent (DUBprofiler service)
Procedure: as §1

[10] = target: T9, panel of 48 purified DUBs (Homo sapiens, UniProt Q9NQC7); conditions: DUB CYLD; screening concentration 5 μM; 5 µM
T9 construct: purchased Ubiquigent (DUBprofiler service)
Procedure: as §1

[11] = target: T10, panel of 48 purified DUBs (Homo sapiens, UniProt Q9Y5T5); conditions: DUB USP16; screening concentration 5 μM; 5 µM
T10 construct: purchased Ubiquigent (DUBprofiler service)
Procedure: as §1

[12] = target: T11, panel of 48 purified DUBs (Homo sapiens, UniProt Q9UPU5); conditions: DUB USP24; screening concentration 5 μM; 5 µM
T11 construct: purchased Ubiquigent (DUBprofiler service)
Procedure: as §1

[13] = target: T12, panel of 48 purified DUBs (Homo sapiens, UniProt Q6R6M4); conditions: DUB USP17; screening concentration 5 μM; 5 µM
T12 construct: purchased Ubiquigent (DUBprofiler service)
T12 sequence (Q6R6M4 whole entry): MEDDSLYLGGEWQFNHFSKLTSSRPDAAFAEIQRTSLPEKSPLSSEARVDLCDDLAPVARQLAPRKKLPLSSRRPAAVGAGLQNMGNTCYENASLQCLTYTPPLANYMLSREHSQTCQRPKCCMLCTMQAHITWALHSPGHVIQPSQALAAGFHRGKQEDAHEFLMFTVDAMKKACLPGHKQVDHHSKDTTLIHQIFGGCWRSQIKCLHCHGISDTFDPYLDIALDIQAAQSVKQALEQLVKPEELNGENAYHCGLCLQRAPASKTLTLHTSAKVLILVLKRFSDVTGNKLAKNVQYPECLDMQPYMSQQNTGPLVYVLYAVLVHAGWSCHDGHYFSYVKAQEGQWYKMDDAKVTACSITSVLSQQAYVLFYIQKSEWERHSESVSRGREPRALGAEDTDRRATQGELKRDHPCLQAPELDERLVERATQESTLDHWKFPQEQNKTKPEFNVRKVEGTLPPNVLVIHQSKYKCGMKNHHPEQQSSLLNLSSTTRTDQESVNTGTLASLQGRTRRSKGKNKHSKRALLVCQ
Procedure: as §1

[14] = target: T13, panel of 48 purified DUBs (Homo sapiens, UniProt P54252); conditions: DUB Ataxin3; screening concentration 5 μM; 5 µM
T13 construct: purchased Ubiquigent (DUBprofiler service)
Procedure: as §1

[15] = target: T14, panel of 48 purified DUBs (Homo sapiens, UniProt Q96RU2); conditions: DUB USP28; screening concentration 5 μM; 5 µM
T14 construct: purchased Ubiquigent (DUBprofiler service)
Procedure: as §1

[16] = target: T15, panel of 48 purified DUBs (Homo sapiens, UniProt P40818); conditions: DUB USP8; screening concentration 5 μM; 5 µM
T15 construct: purchased Ubiquigent (DUBprofiler service)
Procedure: as §1

[17] = target: T16, panel of 48 purified DUBs (Homo sapiens, UniProt Q14694); conditions: DUB USP10; screening concentration 5 μM; 5 µM
T16 construct: purchased Ubiquigent (DUBprofiler service)
Procedure: as §1

[18] = target: T17, panel of 48 purified DUBs (Homo sapiens, UniProt Q13107); conditions: DUB USP4; screening concentration 5 μM
T17 construct: purchased Ubiquigent (DUBprofiler service)
Procedure: as §1

[19] = target: T18, panel of 48 purified DUBs (Homo sapiens, UniProt P54578); conditions: DUB USP14; screening concentration 5 μM; 5 µM
T18 construct: purchased Ubiquigent (DUBprofiler service)
Procedure: as §1

[20] = target: T19, panel of 48 purified DUBs (Homo sapiens, UniProt Q70CQ3); conditions: DUB USP30; screening concentration 5 μM
T19 construct: purchased Ubiquigent (DUBprofiler service)
Procedure: as §1

[21] = target: T20, panel of 48 purified DUBs (Homo sapiens, UniProt O75604); conditions: DUB USP2; screening concentration 5 μM; 5 µM
T20 construct: purchased Ubiquigent (DUBprofiler service)
Procedure: as §1

[22] = target: T21, panel of 48 purified DUBs (Homo sapiens, UniProt Q8N6M0); conditions: DUB OTUD6B; screening concentration 5 μM; 5 µM
T21 construct: purchased Ubiquigent (DUBprofiler service)
T21 sequence (Q8N6M0 whole entry): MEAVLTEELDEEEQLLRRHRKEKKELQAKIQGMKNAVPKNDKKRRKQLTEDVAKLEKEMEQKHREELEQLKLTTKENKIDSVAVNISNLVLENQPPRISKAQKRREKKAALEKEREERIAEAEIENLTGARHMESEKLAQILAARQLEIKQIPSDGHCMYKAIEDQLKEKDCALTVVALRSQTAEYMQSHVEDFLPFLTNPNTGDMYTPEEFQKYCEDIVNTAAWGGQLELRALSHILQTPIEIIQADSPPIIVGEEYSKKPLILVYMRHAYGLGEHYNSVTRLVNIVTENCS
Procedure: as §1

[23] = target: T22, panel of 48 purified DUBs (Homo sapiens, UniProt Q15040); conditions: DUB JOSD1; screening concentration 5 μM
T22 construct: purchased Ubiquigent (DUBprofiler service)
Procedure: as §1

[24] = target: T23, panel of 48 purified DUBs (Homo sapiens, UniProt A6NNY8); conditions: DUB USP27X; screening concentration 5 μM; 5 µM
T23 construct: purchased Ubiquigent (DUBprofiler service)
T23 sequence (A6NNY8 whole entry): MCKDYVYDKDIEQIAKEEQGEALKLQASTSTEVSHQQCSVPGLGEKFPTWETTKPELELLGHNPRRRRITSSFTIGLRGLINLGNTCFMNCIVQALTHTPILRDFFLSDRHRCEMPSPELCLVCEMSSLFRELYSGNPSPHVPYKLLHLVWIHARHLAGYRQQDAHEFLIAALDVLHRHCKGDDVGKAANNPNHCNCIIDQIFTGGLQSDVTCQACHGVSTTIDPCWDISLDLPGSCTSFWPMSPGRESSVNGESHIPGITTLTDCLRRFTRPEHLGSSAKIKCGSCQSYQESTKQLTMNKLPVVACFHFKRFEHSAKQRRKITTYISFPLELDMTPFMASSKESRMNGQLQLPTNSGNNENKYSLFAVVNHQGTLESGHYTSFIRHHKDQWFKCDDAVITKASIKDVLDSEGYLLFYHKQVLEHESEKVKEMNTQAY
Procedure: as §1

[25] = target: T24, panel of 48 purified DUBs (Homo sapiens, UniProt Q92560); conditions: DUB BAP1; screening concentration 5 μM; 5 µM
T24 construct: purchased Ubiquigent (DUBprofiler service)
Procedure: as §1

[26] = target: T25, panel of 48 purified DUBs (Homo sapiens, UniProt Q96JH7); conditions: DUB VCPIP; screening concentration 5 μM
T25 construct: purchased Ubiquigent (DUBprofiler service)
Procedure: as §1

[27] = target: T26, panel of 48 purified DUBs (Homo sapiens, UniProt Q96DC9); conditions: DUB OTUB2; screening concentration 5 μM; 5 µM
T26 construct: purchased Ubiquigent (DUBprofiler service)
T26 sequence (Q96DC9 whole entry): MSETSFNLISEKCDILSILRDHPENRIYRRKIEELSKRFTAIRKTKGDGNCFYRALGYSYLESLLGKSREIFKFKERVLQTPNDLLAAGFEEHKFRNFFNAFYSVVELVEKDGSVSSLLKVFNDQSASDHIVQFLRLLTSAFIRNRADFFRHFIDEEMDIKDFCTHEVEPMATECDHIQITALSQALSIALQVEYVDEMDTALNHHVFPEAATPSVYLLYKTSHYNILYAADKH
Procedure: as §1

[28] = target: T27, panel of 48 purified DUBs (Homo sapiens, UniProt Q9P2H5); conditions: DUB USP35; screening concentration 5 μM; 5 µM
T27 construct: purchased Ubiquigent (DUBprofiler service)
T27 sequence (Q9P2H5 whole entry): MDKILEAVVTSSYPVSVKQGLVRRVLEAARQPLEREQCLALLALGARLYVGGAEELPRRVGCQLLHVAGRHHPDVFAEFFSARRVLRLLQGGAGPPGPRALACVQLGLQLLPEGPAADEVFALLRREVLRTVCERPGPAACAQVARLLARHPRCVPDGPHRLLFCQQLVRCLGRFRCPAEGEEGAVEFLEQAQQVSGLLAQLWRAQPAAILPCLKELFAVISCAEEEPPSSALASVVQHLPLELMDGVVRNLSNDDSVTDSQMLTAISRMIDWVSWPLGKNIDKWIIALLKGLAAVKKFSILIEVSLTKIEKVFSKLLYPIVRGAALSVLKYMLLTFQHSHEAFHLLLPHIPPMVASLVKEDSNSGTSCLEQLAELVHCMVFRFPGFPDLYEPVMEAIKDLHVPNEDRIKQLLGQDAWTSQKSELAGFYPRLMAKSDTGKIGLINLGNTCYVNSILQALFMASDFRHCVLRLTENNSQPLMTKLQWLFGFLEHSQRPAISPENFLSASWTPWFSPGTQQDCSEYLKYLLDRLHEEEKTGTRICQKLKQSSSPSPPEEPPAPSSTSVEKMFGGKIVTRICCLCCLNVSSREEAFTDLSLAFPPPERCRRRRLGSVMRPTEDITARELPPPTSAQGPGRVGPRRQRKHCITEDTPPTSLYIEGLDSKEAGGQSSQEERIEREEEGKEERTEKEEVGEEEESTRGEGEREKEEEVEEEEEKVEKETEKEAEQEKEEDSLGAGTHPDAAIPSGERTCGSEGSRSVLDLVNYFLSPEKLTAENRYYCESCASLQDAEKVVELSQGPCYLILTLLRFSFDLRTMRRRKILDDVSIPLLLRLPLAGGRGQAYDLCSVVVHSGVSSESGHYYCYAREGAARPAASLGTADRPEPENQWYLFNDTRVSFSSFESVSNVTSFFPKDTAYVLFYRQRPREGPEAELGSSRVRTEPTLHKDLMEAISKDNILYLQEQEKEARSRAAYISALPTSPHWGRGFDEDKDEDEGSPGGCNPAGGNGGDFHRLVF
Procedure: as §1

[29] = target: T28, panel of 48 purified DUBs (Homo sapiens, UniProt Q5T2D3); conditions: DUB OTUD3; screening concentration 5 μM; 5 µM
T28 construct: purchased Ubiquigent (DUBprofiler service)
Procedure: as §1

[30] = target: T29, panel of 48 purified DUBs (Homo sapiens, UniProt P62068); conditions: DUB USP46/UAF1/WDR20; screening concentration 5 μM; 5 µM
T29 construct: purchased Ubiquigent (DUBprofiler service)
Procedure: as §1

O=C(NC1CCNCC1)c1nn(C(=O)c2c(Cl)cccc2Cl)cc1NC(=O)c1c(Cl)cccc1Cl [JMS-175-2]
Activity (% control) [1]: 90 % control and 98 % control
inhibition of a panel of 48 DUBs [2]: did not fully inhibit any of the DUBs
Activity (% control) ([3]; DUB AMSH-LP(+Zn2+)): 100 % control and 99 % control
Activity (% control) ([3]; DUB AMSH-LP): 98 % control and 90 % control
Activity (% control) [4]: 101 % control and 102 % control
Activity (% control) [5]: 93 % control
Activity (% control) [6]: 95 % control and 96 % control
Activity (% control) [7]: 96 % control and 99 % control
Activity (% control) [8]: 92 % control and 95 % control
Activity (% control) [9]: 100 % control and 99 % control
Activity (% control) [10]: 104 % control and 112 % control
Activity (% control) [11]: 79 % control and 78 % control
Activity (% control) [12]: 98 % control and 99 % control
Activity (% control) [13]: 89 % control and 83 % control
Activity (% control) [14]: 87 % control and 85 % control
Activity (% control) [15]: 107 % control and 96 % control
Activity (% control) [16]: 88 % control and 84 % control
Activity (% control) [17]: 95 % control and 102 % control
Activity (% control) [18]: 101 % control
Activity (% control) [19]: 85 % control and 95 % control
Activity (% control) [20]: 89 % control
Activity (% control) [21]: 86 % control and 84 % control
Activity (% control) [22]: 102 % control and 101 % control
Activity (% control) [23]: 67 % control
Activity (% control) [24]: 102 % control and 97 % control
Activity (% control) [25]: 92 % control and 96 % control
Activity (% control) [26]: 93 % control
Activity (% control) [27]: 97 % control and 96 % control
Activity (% control) [28]: 96 % control and 94 % control
Activity (% control) [29]: 95 % control and 93 % control
Activity (% control) [30]: 95 % control and 99 % control
